# Experimental data taken from patent US20100137275A1 (IPSEN PHARMA S.A.S., priority 2007, published 2010).
# Tests used:
# [1] = target: T1, purified recombinant Cdc25-C enzyme (MBP-Cdc25C protein) (Homo sapiens, UniProt P30307); experiment: Phosphatase activity of the purified recombinant Cdc25C enzyme (OMFP dephosphorylation, fluorescence); format: biochemical; conditions: OMFP 500 μM, 4 hours at 30° C.
# T1 construct: made in house
# T1 sequence (P30307 1-473): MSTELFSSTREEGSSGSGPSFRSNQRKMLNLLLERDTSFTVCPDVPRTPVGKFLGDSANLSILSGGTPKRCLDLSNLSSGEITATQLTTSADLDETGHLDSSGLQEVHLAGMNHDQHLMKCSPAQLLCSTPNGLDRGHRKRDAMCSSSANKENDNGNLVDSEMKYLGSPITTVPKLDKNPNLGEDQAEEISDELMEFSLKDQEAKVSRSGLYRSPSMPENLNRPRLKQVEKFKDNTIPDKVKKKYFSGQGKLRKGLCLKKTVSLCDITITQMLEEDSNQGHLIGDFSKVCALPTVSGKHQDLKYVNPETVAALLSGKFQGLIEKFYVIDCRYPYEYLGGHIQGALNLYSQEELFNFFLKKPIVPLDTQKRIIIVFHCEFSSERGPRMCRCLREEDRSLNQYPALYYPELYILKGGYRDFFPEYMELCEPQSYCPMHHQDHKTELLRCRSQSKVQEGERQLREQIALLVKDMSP
# Outline: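 MBP-Cdc25C fusion protein in 50 mM Tris-HCl pH 8.2, 50 mM NaCl, 1 mM DTT, 20% glycerol; reaction started with 500 μM OMFP (final). Compounds tested at decreasing concentrations from 40 μM; 4 h at 30 °C, OMF fluorescence read at 475 nm. IC50 from three independent experiments by linear regression over the linear part of the sigmoid.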
# [2] = tested on: Mia-PaCa2 (human pancreas cancer cells); experiment: Anti-proliferative activity on Mia-Paca2 cell line (WST1 colorimetric test); format: cell-based; conditions: MIA PaCa-2, 96 h, 96 hours treatment, read-out: IC50 on proliferation of the Mia-Paca2 cell line
# Description: By way of an example, the effect of treating two human cell lines Mia-Paca2 and DU145 with the compounds of the examples described hereinbefore will be studied. The cell lines DU145 (human prostate cancer cells) and Mia-PaCa2 (human pancreas cancer cells) were obtained from the American Tissue Culture Collection (Rockville, Md., USA). A 96-well plate was inoculated on day 0 with cells placed in 80 μl of Dulbecco's modified Eagle's medium (Gibco-Brl, Cergy-Pontoise, France) with 10% heat-inactivated foetal calf serum (Gibco-Brl, Cergy-Pontoise, France), 50000 units/1 of penicillin and 50 mg/l of streptomycin (Gibco-Brl, Cergy-Pontoise, France), and 2 mM of glutamine (Gibco-Brl, Cergy-Pontoise, France). The cells were treated on day 1 with increasing concentrations of each test compound up to 10 μM for 96 hours. At the end of this period, cell proliferation is quantified by means of a colorimetric test based on cleavage of the tetrazolium salt WST1 by the mitochondrial dehydrogenases in the viable cells, resulting in formation of formazan (Boehringer Mannheim, Meylan, France). These tests are performed in duplicate with 8 determinations per concentration tested. For each compound to be tested, the values within the linear part of the sigmoid curve were subjected to linear regression analysis and used to estimate the IC50 inhibitory concentration. The products are solubilised in dimethylsulfoxide (DMSO) at a concentration of 10^−2 M and used in culture with a final DMSO concentration of 0.1%.
# [3] = tested on: DU145 (human prostate cancer cells); experiment: Anti-proliferative activity on DU-145 cell line (WST1 colorimetric test); format: cell-based; conditions: DU-145, 96 h, 96 hours treatment, read-out: IC50 on the proliferation of the DU-145 cell line
IC50 [1],IC50 [2],IC50 [3],melting point,Compound
≤ 1 µM,≤ 5 µM,≤ 5 µM,71 to 73 °C,"CN(CCNC(=O)Nc1ccc(Cl)cc1)CCNc1cc(N2CCCC2)nc(N2CCCC2)n1 [Example 16, N-(4-chlorophenyl)-N′-{2-[{2-[(2,6-dipyrrolidin-1-ylpyrimidin-4-yl)amino]ethyl}(methyl)amino]ethyl}urea]"
≤ 5 µM,≤ 5 µM,≤ 5 µM,140 to 142 °C,"CN(CCNc1cc(N2CCCC2)nc(N2CCCC2)n1)CCNS(=O)(=O)c1ccc(C(F)(F)F)cc1 [Example 89, N-{2-[{2-[(2,6-dipyrrolidin-1-ylpyrimidin-4-yl)amino]ethyl}(methyl)amino]ethyl}-4-(trifluoromethyl)benzenesulfonamide]"
≤ 1 µM,≤ 5 µM,≤ 5 µM,109 to 111 °C,"COc1cc(NC(=S)NCCN(C)CCNc2cc(N3CCCC3)nc(N3CCCC3)n2)cc(OC)c1OC [Example 38, N-{2-[{2-[(2,6-dipyrrolidin-1-ylpyrimidin-4-yl)amino]ethyl}(methyl)amino]ethyl}-N′-(3,4,5-trimethoxyphenyl)thiourea]"
≤ 1 µM,≤ 5 µM,≤ 5 µM,192 to 193 °C,"O=C(NCCCCCNc1cc(N2CCCC2)nc(N2CCCC2)n1)Nc1ccc(Cl)cc1 [Example 19, N-(4-chlorophenyl)-N′-{5-[(2,6-dipyrrolidin-1-ylpyrimidin-4-yl)amino]pentyl}urea]"
≤ 1 µM,≤ 5 µM,≤ 5 µM,118 to 120 °C,"CN(CCNC(=S)Nc1ccc(S(=O)(=O)c2ccc(Br)cc2)cc1)CCNc1cc(N2CCCC2)nc(N2CCCC2)n1 [Example 60, N-{4-[(4-bromophenyl)sulfonyl]phenyl}-N′-{2-[{2-[(2,6-dipyrrolidin-1-ylpyrimidin-4-yl)amino]ethyl}(methyl)amino]ethyl}thiourea]"
≤ 1 µM,≤ 5 µM,≤ 5 µM,108 to 110 °C,"CN(CCNC(=S)Nc1cccnc1Oc1ccc(F)cc1F)CCNc1cc(N2CCCC2)nc(N2CCCC2)n1 [Example 47, N-[2-(2,4-difluorophenoxy)pyridin-3-yl]-N′-{2-[{2-[(2,6-dipyrrolidin-1-ylpyrimidin-4-yl)amino]ethyl}(methyl)amino]ethyl}thiourea]"
≤ 1 µM,≤ 5 µM,≤ 5 µM,146 to 148 °C,"CN(CCNC(=S)Nc1ccc(S(=O)(=O)Nc2ccccc2)cc1)CCNc1cc(N2CCCC2)nc(N2CCCC2)n1 [Example 62, 4-{[({2-[{2-[(2,6-dipyrrolidin-1-ylpyrimidin-4-yl)amino]ethyl}(methyl)amino]ethyl}amino)carbonothioyl]amino}-N-phenylbenzenesulfonamide]"
≤ 5 µM,≤ 5 µM,≤ 5 µM,105 to 107 °C,"CN(CCNC(=S)Nc1ccccc1F)CCNc1cc(N2CCCC2)nc(N2CCCC2)n1 [Example 42, N-{2-[{2-[(2,6-dipyrrolidin-1-ylpyrimidin-4-yl)amino]ethyl}(methyl)amino]ethyl}-N′-(2-fluorophenyl)thiourea]"
≤ 1 µM,≤ 5 µM,≤ 5 µM,96 to 98 °C,"CN(CCNC(=S)Nc1ccc(Cl)nc1)CCNc1cc(N2CCCC2)nc(N2CCCC2)n1 [Example 53, N-(6-chloropyridin-3-yl)-N′-{2-[{2-[(2,6-dipyrrolidin-1-ylpyrimidin-4-yl)amino]ethyl}(methyl)amino]ethyl}thiourea]"
≤ 1 µM,≤ 5 µM,≤ 5 µM,138 to 139 °C,"CN(CCNC(=O)Nc1ccc(Cl)c(Cl)c1)CCNc1cc(N2CCCC2)nc(N2CCCC2)n1 [Example 17, N-(3,4-dichlorophenyl)-N′-{2-[{2-[(2,6-dipyrrolidin-1-ylpyrimidin-4-yl)amino]ethyl}(methyl)amino]ethyl}urea]"
